In the supplement of paper PMC10307832:

Tests used:
Experiment in all cases: relative viability (nuclei count vs DMSO), 5 days (fraction); higher = more cells survive
EHT 1864 + Vorinostat = compound: C1COCCN1CC2=CC(=O)C(=CO2)OCCCCCSC3=C4C=CC(=CC4=NC=C3)C(F)(F)F [EHT 1864] + O=C(CCCCCCC(=O)Nc1ccccc1)NO [Vorinostat] (partner 1 µM)
Method in brief: (§1)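 Lung cancer cell lines in 1536-well plates got either a single drug or a fixed anchor-drug dose together with five library-drug doses (not always all listed) in √10 steps, by pin tool, on the day after seeding. Nuclei were counted after 5 days, and relative viability is the treated-to-vehicle ratio of nuclei counts. Values are medians of duplicate plates.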

EHT 1864 + Pemetrexed = compound: C1COCCN1CC2=CC(=O)C(=CO2)OCCCCCSC3=C4C=CC(=CC4=NC=C3)C(F)(F)F [EHT 1864] + Nc1nc2[nH]cc(CCc3ccc(C(=O)N[C@@H](CCC(=O)O)C(=O)O)cc3)c2c(=O)[nH]1 [Pemetrexed] (partner 0.2 µM)
Method in brief: as §1

EHT 1864 + Dasatinib = compound: C1COCCN1CC2=CC(=O)C(=CO2)OCCCCCSC3=C4C=CC(=CC4=NC=C3)C(F)(F)F [EHT 1864] + Cc1nc(Nc2ncc(C(=O)Nc3c(C)cccc3Cl)s2)cc(N2CCN(CCO)CC2)n1 [Dasatinib] (partner 0.075 µM)
Method in brief: as §1

EHT 1864 + Palbociclib = compound: C1COCCN1CC2=CC(=O)C(=CO2)OCCCCCSC3=C4C=CC(=CC4=NC=C3)C(F)(F)F [EHT 1864] + CC(=O)c1c(C)c2cnc(Nc3ccc(N4CCNCC4)cn3)nc2n(C2CCCC2)c1=O [Palbociclib] (partner 0.5 µM)
Method in brief: as §1

Cell Line	relative viability (EHT 1864 + Vorinostat; first compound 0.04 µM)	relative viability (EHT 1864 + Vorinostat; first compound 0.1265 µM)	relative viability (EHT 1864 + Vorinostat; first compound 0.4 µM)	relative viability (EHT 1864 + Vorinostat; first compound 1.265 µM)	relative viability (EHT 1864 + Vorinostat; first compound 4 µM)	relative viability (EHT 1864 + Pemetrexed; first compound 0.04 µM)	relative viability (EHT 1864 + Pemetrexed; first compound 0.1265 µM)	relative viability (EHT 1864 + Pemetrexed; first compound 0.4 µM)	relative viability (EHT 1864 + Pemetrexed; first compound 1.265 µM)	relative viability (EHT 1864 + Pemetrexed; first compound 4 µM)	relative viability (EHT 1864 + Dasatinib; first compound 0.04 µM)	relative viability (EHT 1864 + Dasatinib; first compound 0.1265 µM)	relative viability (EHT 1864 + Dasatinib; first compound 0.4 µM)	relative viability (EHT 1864 + Dasatinib; first compound 1.265 µM)	relative viability (EHT 1864 + Dasatinib; first compound 4 µM)	relative viability (EHT 1864 + Palbociclib; first compound 0.04 µM)	relative viability (EHT 1864 + Palbociclib; first compound 0.1265 µM)	relative viability (EHT 1864 + Palbociclib; first compound 0.4 µM)	relative viability (EHT 1864 + Palbociclib; first compound 1.265 µM)	relative viability (EHT 1864 + Palbociclib; first compound 4 µM)
NCI-H2170	0.789	0.692	0.774	0.84	0.94	0.279	0.251	0.262	0.279	0.266	0.608	0.579	0.688	0.474	0.563	0.381	0.308	0.408	0.356	0.395
NCI-H2228	0.658	0.641	0.571		0.365	0.323	0.341	0.318		0.34	0.485	0.456	0.418	0.448	0.496	0.881	0.634	0.642		0.777
NCI-H2342	0.688	0.725	0.703	0.803	0.787	0.603	0.704	0.788	0.709	0.742	0.317	0.307	0.315	0.309	0.306	0.487	0.485	0.505	0.554	0.551
NCI-H2347	0.544	0.396	0.506	0.65	0.739	0.402	0.403	0.459	0.465	0.419	0.358	0.251	0.308		0.332	0.428	0.382	0.368	0.439	0.364
